Measured values as given in EP4671365A1, “KIT FOR INDUCING STEM CELLS TO DIFFERENTIATE INTO NK CELLS, USE OF KIT, AND USE OF COMBINATION OF NK CELLS AND TMZ IN TREATMENT FOR TMZ DRUG-RESISTANT GBM” (Xellsmart Biomedical (Suzhou) Co., Ltd, priority 2023, dated 2024).

Columns and labels:
[1] = tested on: sensitive GBM (U87); assay: Cell cycle assay (PI staining, flow cytometry); assay type: cell-based; conditions: TMZ 300 µM
Experimental: (§1) TMZ acts on DNA after being absorbed into tumor cells in the human body, causing alkylation damage to the DNAs, thereby forming DNA double-strand breaks or cross-linking, arresting the cell cycle, and triggering the proliferation arrest or apoptosis of the tumor cells. To explore the mechanism by which the resistant GBM cell strains resist TMZ, a cell cycle assay was performed to determine the effect of TMZ on the cell cycle of different GBM cell strains. A. Cell culture and treatment: See Example 5 for the procedures of U87 and T98G cell culture and TMZ treatment. The concentration of TMZ used in this example was 300 µM. B. Preparation of cell samples: The Beyotime cell cycle kit (Beyotime, C1052) was used according to the manufacturer's instructions. 1 × 10^6 cells were added to a centrifuge tube for later use and centrifuged at 1000 g for 3-5 min to precipitate the cells. The supernatant was discarded by pipetting, and 1 mL of pre-cooled PBS was added to resuspend the cells. The mixture was transferred to a 1.5 mL centrifuge tube. The cells were pelleted by centrifugation, and the supernatant was discarded by pipetting. C. Cell fixation: The cells were added to 1 mL of pre-cooled 70% ethanol, mixed well by pipetting, and fixed at 4 °C for 30 min. The mixture was centrifuged at about 1000 g for 3-5 min to pellet the cells. The supernatant was discarded by pipetting, and about 1 mL of PBS pre-cooled in an ice bath was added to resuspend the cells. The cells were pelleted again by centrifugation, and the supernatant was discarded by pipetting. D. Preparation of and staining with propidium iodide (PI) staining solution: Referring to Table 2, an appropriate amount of PI staining solution was prepared according to the number of samples to be tested. Table 2. Preparation of PI staining solutions
(§2) Staining: 0.5 mL of the PI staining solution was added to each tube of cell samples, and the cell pellet was slowly and fully resuspended and incubated in the dark at 37 °C for 30 min. The mixture was preserved at 4 °C or in an ice bath in the dark. The flow cytometry was completed within 24 h after the staining was completed.
(§3) E. Flow cytometry detection and analysis: The red fluorescence was detected at an excitation wavelength of 488 nm and the light scattering was also detected on a flow cytometer (Agilent, Novocyte3000). The cellular DNA content assay and light scattering analysis were performed using an appropriate analysis software (Agilent, Novoexpress).

[2] = tested on: resistant GBM (T98G); assay: Cell cycle assay (PI staining, flow cytometry); assay type: cell-based; conditions: TMZ 300 µM, compared to control DMSO
Experimental: as §1, §2, §3

[3] = tested on: resistant GBM (T98G); assay: In vitro killing of tumor target cells (CellTiter-Glo); assay type: cell-based
Experimental: Furthermore, in this example, the in vitro efficacy of iPSC-NK cells in combination with TMZ was explored by monitoring the killing of tumor target cells. • A. The procedures for the culture, digestion, and plating of GBM tumor cells T98G are described in Example 5. • B. TMZ preparation: See Example 5 for the procedures of treating cells. In this example, the cells were pre-treated at 1000 µM for 48 h. • C. iPSC-NK cells were prepared as described in Example 8. • D. Co-incubation for killing. According to the preset effector-to-target ratios (1:8, 1:4, and 1:1), an appropriate volume of iNK cells in an expansion culture was taken (note that the iNK cell viability should be kept at 90% or higher) and counted by AO/PI staining. According to the counting result, the cell suspension was adjusted to a density of 1 × 10^5 cells/mL. The tumor cells were seeded at 1 × 10^4 cells/well. After the adherent culture of T98G cells in the 96-well plates (6 h after re-digestion and inoculation), the NK cell suspension was added to the T98G plates according to the grouping design. After 18 h of co-incubation, the viability of the T98G cells was detected using the CellTiter-Glo® luminescent cell viability assay kit. Three replicates were set in each group. • E. Cell viability assay. At preset time points (8, 16, 24, and 48 h), the cells were collected. The CellTiter-Glo® luminescent cell viability assay kit was used according to the manufacturer's instructions. An appropriate volume of the CellTiter-Glo® solution was mixed with a DMEM medium in a ratio of 1:1 to prepare a working solution. The CellTiter-Glo® working solution was added to the 96-well plate at 50 µL/well. The plate was incubated at room temperature for 10 min in the dark and then detected on a microplate reader for the chemiluminescence. • F. Killing rate calculation. Killing rate (%) = (fluorescence intensity in the untreated group - fluorescence intensity in the treatment group)/fluorescence intensity in the untreated group × 100%. * denotes p < 0.05 in a T test, and ** denotes p < 0.01. […]

[4] = tested on: TMZ-resistant GBM (T98G); assay: CellTiter-Glo cell viability assay, sensitivity response to TMZ; assay type: cell-based
Experimental: (§4) U87 and T98G cells were cultured until an 80%-90% confluence and digested with pancreatin (Beyotime, C0201-100mL) at 37 °C for 5 min. DMEM medium (Gibco, 11965084) of a two-fold volume was added to stop the digestion. The cell suspension was transferred to a centrifuge tube and centrifuged at 300 g for 5 min. The cell pellet was resuspended in DMEM medium, and the cells were counted by AO (acridine orange)/PI (propidium iodide) staining. According to the counting result, the density of the cell suspension was adjusted to 1 × 10^5 cells/mL. The cell suspension was added to the 96-well plate at 100 µL/well as required for grouping, and then the 96-well plate was incubated in an incubator at 37 °C overnight.
(§5) TMZ powder (Sigma, T2577-25MG) was dissolved in an appropriate volume of DMSO to prepare a TMZ stock solution at a concentration of 100 mM. The TMZ solution with the highest concentration (5000 µM) was prepared as follows: 225 µL of the TMZ stock solution was diluted with 4.5 mL of DMEM medium, and the resultant solution was then diluted to give TMZ working solutions at concentrations of 1000 µM, 500 µM, 200 µM, 100 µM, and 10 µM.
(§6) After the U87 and T98G cells were cultured overnight, and the adherent growth and the logarithmic growth phase were observed, the TMZ working solutions at the corresponding working concentration were added according to the grouping design at 100 µL/well, and the cells were incubated in the incubator. […]
(§7) The CellTiter-Glo® luminescent cell viability assay kit (Promega, G7572) was used, and the procedures in the manufacturer's instructions were performed. An appropriate volume of the CellTiter-Glo® solution was mixed with a DMEM medium in a ratio of 1:1 to prepare a working solution. The CellTiter-Glo® working solution was added to the 96-well plate at 50 µL/well. The plate was incubated at room temperature for 10 min in the dark and then detected on a microplate reader (TECAN, Infinite®200 PRO) for the chemiluminescence.
(§8) The assay and detection schemes were the same as those in Example 5.1, and a concentration of 300 µM in the sensitive interval in Example 5.1 was selected as the TMZ concentration.

[5] = tested on: TMZ-sensitive GBM (U87); assay: as above; assay type: cell-based
Experimental: as §4, §5, §6, §7, §8

[6] = in vivo, cited from earlier work
[7] = tested on: T98G; assay: Flow cytometry of immune activation ligands after TMZ treatment; assay type: cell-based; conditions: TMZ 1000 µM, 48 h; CD112, CD155, B7-H6, CD54, CD70, CD48, CD1d, PD-L1
Source text: Immune surveillance is an important mechanism for identifying and removing tumor cells, and the dynamic expression of proteins related to immune activation on the membrane of tumor cells is also the key to their recognition by immune cells or recognition escape. In this example, the changes in expression of immune-related proteins when GBM is resisting the effect of TMZ were further studied, so as to provide a theoretical basis for the immunotherapy. • A. GBM cell culture and treatment: See Example 5 for the procedures of T98G cell culture. The cells were cultured until an 80%-90% confluence and digested with pancreatin at 37 °C for 5 min. DMEM medium of a two-fold volume was added to stop the digestion. The cell suspension was transferred to a centrifuge tube and centrifuged at 300 g for 5 min. The cell pellet was resuspended in DMEM medium, and the cells were counted by AO/PI staining. According to the counting result, the density of the cell suspension was adjusted to 1 × 10^5 cells/mL. After that, an appropriate volume of TMZ stock solution (100 mM) was added to the cell suspension to reach a final TMZ concentration of 1000 µM in the cell suspension. […]
The cells treated with TMZ for 48 h were digested with a pancreatin digestion solution and centrifuged, and the supernatant was discarded. […] The cells were washed with PBS, centrifuged, resuspended, and detected on a flow cytometer. […]

[8] = TMZ 300 µM, 48 h, compared to control DMSO

Cn1nnc2c(C(N)=O)ncn2c1=O [TMZ, 3,4-dihydro-3-methyl-4-oxoimidazo[5,1-d]-asymmetric-tetrazol-8-amide]
DNA content in the G2/M phase ([1]; 24 h): 16.86%
DNA content in the G2/M phase ([1]; 48 h): 23.22%
DNA content in the G2/M phase ([1]; 72 h): 40.01%
DNA in the G2/M phase [2]: did not change significantly
killing effect against target cells ([3]; 8 h, 16 h, 24 h and 48 h, effector-to-target ratios 1:8, 1:4, 1:1, TMZ 1000 µM pretreatment 48 h): weak killing effect
killing effects / in vitro killing activity ([3]; E:T = 1:1, co-incubation 8 h): substantially no killing effects
killing effect ([3]; at 48 h, TMZ 1000 µM): about 10%
viability at 200 µM ([4]; Homo sapiens, T98G, TMZ 200 µM, 72 h, read-out: viable T98G cell count): ≥ 80%
viability at 300 µM ([4]; Homo sapiens, T98G, TMZ 300 µM, at 72 h, read-out: viable cell count (T98G)): > 80%
viability at 500 µM ([4]; Homo sapiens, T98G, TMZ 500 µM, 72 h, read-out: viable T98G cell count): 70%
growth of T98G cells (microscopic results) [4, 8]: not greatly different
viability at 200 µM ([5]; Homo sapiens, U-87 MG, TMZ 200 µM, 72 h, read-out: viable U87 cell count): ~50%
viability at 300 µM ([5]; Homo sapiens, U-87 MG, TMZ 300 µM, at 72 h, read-out: viable U87 cell count): < 40%
viability at 500 µM ([5]; Homo sapiens, U-87 MG, TMZ 500 µM, 72 h, read-out: viable U87 cell count): ~40%
growth of U87 cells (microscopic results) [5, 8]: significantly inhibited
oral bioavailability ([6]; po): ~100%
concentration detected in the cerebrospinal fluid, of the TMZ plasma concentration [6]: about 20%
expression of immune activation ligands [7]: up-regulated expression to different extents
